molecular target: SARS-CoV-2 PLpro (Severe acute respiratory syndrome coronavirus 2 (2019-nCoV) (SARS-CoV-2), UniProt P0DTD1); assay: PLpro enzymatic inhibition assay (IC50 value determination); assay type: biochemical; conditions: 60 min preincubation for covalent inhibitors, 10 min for non-covalent, read-out: Inhibition of SARS-CoV-2 PLpro IC50 range

Row | SMILES | IC50 [nM]
1 | C#CCNC(=O)CNC(=O)CN(C1CCN(c2nc3ccccc3s2)CC1)S(C)(=O)=O [Compound 119, 2-(N-(1-(benzo[d]thiazol-2-yl)piperidin-4-yl)methylsulfonamido)-N-(2-oxo-2-(prop-2-yn-1-ylamino)ethyl)acetamide] | 100 to 1000
2 | C#CCNC(=O)CNC(=O)CN(C1CCN(C(C)c2ccc(Cl)cc2Cl)CC1)S(C)(=O)=O (stereo not shown) [Compound 120, 2-(N-(1-(1-(2,4-dichlorophenyl)ethyl)piperidin-4-yl)methylsulfonamido)-N-(2-oxo-2-(prop-2-yn-1-ylamino)ethyl)acetamide] | 100 to 1000
3 | C#CCNC(=O)CNC(=O)CN(C1CCN(C(C)c2ccc(OC)c(Cl)c2)CC1)S(C)(=O)=O (stereo not shown) [Compound 121, 2-(N-(1-(1-(3-chloro-4-methoxyphenyl)ethyl)piperidin-4-yl)methylsulfonamido)-N-(2-oxo-2-(prop-2-yn-1-ylamino)ethyl)acetamide] | < 100
4 | C#CCNC(=O)CNC(=O)CN(C1CCN(C(C)c2cccc(OC)c2Cl)CC1)S(C)(=O)=O (stereo not shown) [Compound 123, 2-(N-(1-(1-(2-chloro-3-methoxyphenyl)ethyl)piperidin-4-yl)methylsulfonamido)-N-(2-oxo-2-(prop-2-yn-1-ylamino)ethyl)acetamide] | 100 to 1000
5 | C#CCNC(=O)CNC(=O)CN(C1CCN(C(C)c2c(Cl)cccc2Cl)CC1)S(C)(=O)=O (stereo not shown) [Compound 125, 2-(N-(1-(1-(2,6-dichlorophenyl)ethyl)piperidin-4-yl)methylsulfonamido)-N-(2-oxo-2-(prop-2-yn-1-ylamino)ethyl)acetamide] | 100 to 1000
6 | C#CCNC(=O)CNC(=O)CN(C1CCN(c2nc3cc(Cl)ccc3s2)CC1)S(C)(=O)=O [Compound 126, 2-(N-(1-(5-chlorobenzo[d]thiazol-2-yl)piperidin-4-yl)methylsulfonamido)-N-(2-oxo-2-(prop-2-yn-1-ylamino)ethyl)acetamide] | 1000 to 10000
7 | C#CCCNC(=O)CNC(=O)CN(C1CCN([C@H](C)c2cccc3ccccc23)CC1)S(C)(=O)=O [Compound 127, (R)—N-(but-3-yn-1-yl)-2-(2-(N-(1-(1-(naphthalen-1-yl)ethyl)piperidin-4-yl)methylsulfonamido)acetamido)acetamide] | 100 to 1000
8 | C#CC(C)NC(=O)CNC(=O)CN(C1CCN([C@H](C)c2cccc3ccccc23)CC1)S(C)(=O)=O (stereo partly drawn) [Compound 128, N-(but-3-yn-2-yl)-2-(2-(N-(1-((R)-1-(naphthalen-1-yl)ethyl)piperidin-4-yl)methylsulfonamido)acetamido)acetamide] | 1000 to 10000
9 | C#CCNC(=O)CNC(=O)CN(C1CCN(C(C)c2ccccc2F)CC1)S(C)(=O)=O (stereo not shown) [Compound 129, 2-(N-(1-(1-(2-fluorophenyl)ethyl)piperidin-4-yl)methylsulfonamido)-N-(2-oxo-2-(prop-2-yn-1-ylamino)ethyl)acetamide] | 100 to 1000
10 | C#CCNC(=O)CNC(=O)CN(C1CCN(C(C)c2ccccc2OC)CC1)S(C)(=O)=O (stereo not shown) [Compound 130, 2-(N-(1-(1-(2-methoxyphenyl)ethyl)piperidin-4-yl)methylsulfonamido)-N-(2-oxo-2-(prop-2-yn-1-ylamino)ethyl)acetamide] | < 100
11 | C#CCNC(=O)CNC(=O)CN(C1CCN(C(C)c2cccc3ccccc23)CC1)S(=O)(=O)CCC(=O)OC (stereo not shown) [Compound 131, methyl 3-(N-(1-(1-(naphthalen-1-yl)ethyl)piperidin-4-yl)-N-(2-oxo-2-((2-oxo-2-(prop-2-yn-1-ylamino)ethyl)amino)ethyl)sulfamoyl)propanoate] | < 100
12 | CC(c1cccc2ccccc12)N1CCC(N(CC(=O)NCC(=O)NCC(=O)CF)S(C)(=O)=O)CC1 (stereo not shown) [Compound 132, N-(3-fluoro-2-oxopropyl)-2-(2-(N-(1-(1-(naphthalen-1-yl)ethyl)piperidin-4-yl)methylsulfonamido)acetamido)acetamide] | < 100
13 | C#CCNC(=O)CNC(=O)CN(C1CCN([C@H](C)c2cccc3ccccc23)CC1)S(=O)(=O)CCC(N)=O [Compound 133, (R)-3-(N-(1-(1-(naphthalen-1-yl)ethyl)piperidin-4-yl)-N-(2-oxo-2-((2-oxo-2-(prop-2-yn-1-ylamino)ethyl)amino)ethyl)sulfamoyl)propanamide] | < 100
14 | C#CCNC(=O)CNC(=O)CN(C1CCN([C@H](C)c2cccc3ccccc23)CC1)S(=O)(=O)N1CCC(C(=O)OC)C1 (stereo partly drawn) [Compound 134, methyl 1-(N-(1-((R)-1-(naphthalen-1-yl)ethyl)piperidin-4-yl)-N-(2-oxo-2-((2-oxo-2-(prop-2-yn-1-ylamino)ethyl)amino)ethyl)sulfamoyl)pyrrolidine-3-carboxylate] | < 100
15 | C#CCNC(=O)CNC(=O)CN(C1CCN([C@H](C)c2cccc3ccccc23)CC1)S(=O)(=O)CCCO [Compound 135, (R)-2-((3-hydroxy-N-(1-(1-(naphthalen-1-yl)ethyl)piperidin-4-yl)propyl)sulfonamido)-N-(2-oxo-2-(prop-2-yn-1-ylamino)ethyl)acetamide] | < 100
16 | COC(=O)/C=C/CNC(=O)c1nnc(CNC(=O)CN(C2CCN(C(C)c3cccc4ccccc34)CC2)S(C)(=O)=O)o1 (stereo not shown) [Compound 136, methyl (E)-4-(5-((2-(N-(1-(1-(naphthalen-1-yl)ethyl)piperidin-4-yl)methylsulfonamido)acetamido)methyl)-1,3,4-oxadiazole-2-carboxamido)but-2-enoate] | 100 to 1000
17 | C#CCNC(=O)CNC(=O)CN(C1CCN([C@H](C)c2cccc3ccccc23)CC1)S(=O)(=O)N1CCC(C(N)=O)C1 (stereo partly drawn) [Compound 137, 1-(N-(1-((R)-1-(naphthalen-1-yl)ethyl)piperidin-4-yl)-N-(2-oxo-2-((2-oxo-2-(prop-2-yn-1-ylamino)ethyl)amino)ethyl)sulfamoyl)pyrrolidine-3-carboxamide] | < 100
18 | C#CCNC(=O)CNC(=O)CN(C1CCN(C(C)c2ccc(OC)cc2Cl)CC1)S(C)(=O)=O (stereo not shown) [Compound 139, 2-(N-(1-(1-(2-chloro-4-methoxyphenyl)ethyl)piperidin-4-yl)methylsulfonamido)-N-(2-oxo-2-(prop-2-yn-1-ylamino)ethyl)acetamide] | 100 to 1000
19 | C#CCNC(=O)CNC(=O)CN(C1CCN(C(C)c2cc(Cl)ccc2Cl)CC1)S(C)(=O)=O (stereo not shown) [Compound 140, 2-(N-(1-(1-(2,5-dichlorophenyl)ethyl)piperidin-4-yl)methylsulfonamido)-N-(2-oxo-2-(prop-2-yn-1-ylamino)ethyl)acetamide] | 100 to 1000
20 | C#CCNC(=O)CNC(=O)CN(C1CCN(C(C)c2cccc(-c3cccs3)c2)CC1)S(C)(=O)=O (stereo not shown) [Compound 141, N-(2-oxo-2-(prop-2-yn-1-ylamino)ethyl)-2-(N-(1-(1-(3-(thiophen-2-yl)phenyl)ethyl)piperidin-4-yl)methylsulfonamido)acetamide] | 100 to 1000
21 | C#CCNC(=O)CNC(=O)CN(C1CCN(C(C)c2cccc(C)c2Cl)CC1)S(C)(=O)=O (stereo not shown) [Compound 142, 2-(N-(1-(1-(2-chloro-3-methylphenyl)ethyl)piperidin-4-yl)methylsulfonamido)-N-(2-oxo-2-(prop-2-yn-1-ylamino)ethyl)acetamide] | 100 to 1000
22 | C#CCNC(=O)CNC(=O)CN(C1CCN(C(CO)c2cccc3ccccc23)CC1)S(C)(=O)=O (stereo not shown) [Compound 143, 2-(N-(1-(2-hydroxy-1-(naphthalen-1-yl)ethyl)piperidin-4-yl)methylsulfonamido)-N-(2-oxo-2-(prop-2-yn-1-ylamino)ethyl)acetamide] | 1000 to 10000

From US20250059159A1, “PLPRO INHIBITORS” (SHANGHAI SYNERGY PHARMACEUTICAL SCIENCES CO., LTD., priority 2021, published 2025)
